Where two headings read alike, the source gives them in different places.
Assays:
Type in all cases: binding
various enzymes [1] = target: various enzymes (Homo sapiens, UniProt Q9Y6R4); conditions: compound 1 uM
Protocol: (§1) Ambit profiling was conducted in accordance with the manufacturer's instructions.

various enzymes [2] = target: various enzymes (Homo sapiens, UniProt O43293); conditions: compound 1 uM
Protocol: as §1

various enzymes [3] = target: various enzymes (Homo sapiens, UniProt P04626); conditions: compound 1 uM
Protocol: as §1

various enzymes [4] = target: various enzymes (Homo sapiens, UniProt Q9H4A3); conditions: compound 1 uM
Protocol: as §1

various enzymes [5] = target: various enzymes (Homo sapiens, UniProt Q9BYP7); conditions: compound 1 uM
various enzymes (Homo sapiens, UniProt Q9BYP7), sequence (Q9BYP7 whole entry): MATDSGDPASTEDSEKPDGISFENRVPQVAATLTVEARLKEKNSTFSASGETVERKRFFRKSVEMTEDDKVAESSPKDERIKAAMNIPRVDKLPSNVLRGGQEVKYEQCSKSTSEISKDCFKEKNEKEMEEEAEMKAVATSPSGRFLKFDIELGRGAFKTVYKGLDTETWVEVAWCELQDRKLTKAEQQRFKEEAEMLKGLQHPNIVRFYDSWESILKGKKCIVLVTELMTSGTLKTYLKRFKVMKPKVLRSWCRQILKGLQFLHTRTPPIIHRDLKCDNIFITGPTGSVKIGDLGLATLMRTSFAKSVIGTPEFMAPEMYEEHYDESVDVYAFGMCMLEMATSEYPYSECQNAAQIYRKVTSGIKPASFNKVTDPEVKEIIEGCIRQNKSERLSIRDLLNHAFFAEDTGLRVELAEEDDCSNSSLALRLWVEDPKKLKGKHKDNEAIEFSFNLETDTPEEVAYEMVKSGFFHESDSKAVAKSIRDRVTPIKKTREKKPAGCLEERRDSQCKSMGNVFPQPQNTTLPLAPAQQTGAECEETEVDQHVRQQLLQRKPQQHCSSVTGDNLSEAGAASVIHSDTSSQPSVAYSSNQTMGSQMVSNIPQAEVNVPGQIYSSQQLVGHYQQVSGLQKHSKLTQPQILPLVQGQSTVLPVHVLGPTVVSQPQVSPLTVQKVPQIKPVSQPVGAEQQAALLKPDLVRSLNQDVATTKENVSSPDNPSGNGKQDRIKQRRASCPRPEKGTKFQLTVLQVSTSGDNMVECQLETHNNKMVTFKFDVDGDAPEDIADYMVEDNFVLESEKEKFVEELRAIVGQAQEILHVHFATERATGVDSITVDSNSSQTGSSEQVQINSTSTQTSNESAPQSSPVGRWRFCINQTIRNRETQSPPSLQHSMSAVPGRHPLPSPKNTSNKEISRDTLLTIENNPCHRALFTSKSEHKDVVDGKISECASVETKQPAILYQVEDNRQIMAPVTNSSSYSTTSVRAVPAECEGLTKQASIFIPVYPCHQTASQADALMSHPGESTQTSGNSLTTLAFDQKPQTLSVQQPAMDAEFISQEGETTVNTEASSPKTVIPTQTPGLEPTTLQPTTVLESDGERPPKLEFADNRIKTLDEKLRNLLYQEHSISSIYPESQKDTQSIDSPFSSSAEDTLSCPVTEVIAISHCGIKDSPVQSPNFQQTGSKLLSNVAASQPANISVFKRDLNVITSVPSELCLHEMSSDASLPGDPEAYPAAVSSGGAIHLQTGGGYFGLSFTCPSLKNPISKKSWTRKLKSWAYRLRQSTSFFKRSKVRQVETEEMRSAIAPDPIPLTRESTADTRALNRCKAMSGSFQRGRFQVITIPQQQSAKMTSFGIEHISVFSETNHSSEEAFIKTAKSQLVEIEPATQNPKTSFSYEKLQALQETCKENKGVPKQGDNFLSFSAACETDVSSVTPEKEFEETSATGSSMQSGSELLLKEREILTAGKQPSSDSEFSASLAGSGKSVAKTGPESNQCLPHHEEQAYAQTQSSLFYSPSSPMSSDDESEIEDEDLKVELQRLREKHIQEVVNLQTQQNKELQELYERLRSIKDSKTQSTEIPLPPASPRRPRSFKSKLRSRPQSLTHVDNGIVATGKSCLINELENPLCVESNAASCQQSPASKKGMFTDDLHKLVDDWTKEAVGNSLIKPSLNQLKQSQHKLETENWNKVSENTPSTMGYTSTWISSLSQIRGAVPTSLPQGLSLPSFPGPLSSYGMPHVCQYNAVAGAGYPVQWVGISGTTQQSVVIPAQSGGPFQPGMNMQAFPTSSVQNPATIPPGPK
Protocol: as §1

various enzymes [6] = target: various enzymes (Homo sapiens, UniProt P32298); conditions: compound 1 uM
Protocol: as §1

various enzymes [7] = target: various enzymes (Homo sapiens, UniProt P51617); conditions: compound 1 uM
various enzymes (Homo sapiens, UniProt P51617), sequence (P51617 whole entry): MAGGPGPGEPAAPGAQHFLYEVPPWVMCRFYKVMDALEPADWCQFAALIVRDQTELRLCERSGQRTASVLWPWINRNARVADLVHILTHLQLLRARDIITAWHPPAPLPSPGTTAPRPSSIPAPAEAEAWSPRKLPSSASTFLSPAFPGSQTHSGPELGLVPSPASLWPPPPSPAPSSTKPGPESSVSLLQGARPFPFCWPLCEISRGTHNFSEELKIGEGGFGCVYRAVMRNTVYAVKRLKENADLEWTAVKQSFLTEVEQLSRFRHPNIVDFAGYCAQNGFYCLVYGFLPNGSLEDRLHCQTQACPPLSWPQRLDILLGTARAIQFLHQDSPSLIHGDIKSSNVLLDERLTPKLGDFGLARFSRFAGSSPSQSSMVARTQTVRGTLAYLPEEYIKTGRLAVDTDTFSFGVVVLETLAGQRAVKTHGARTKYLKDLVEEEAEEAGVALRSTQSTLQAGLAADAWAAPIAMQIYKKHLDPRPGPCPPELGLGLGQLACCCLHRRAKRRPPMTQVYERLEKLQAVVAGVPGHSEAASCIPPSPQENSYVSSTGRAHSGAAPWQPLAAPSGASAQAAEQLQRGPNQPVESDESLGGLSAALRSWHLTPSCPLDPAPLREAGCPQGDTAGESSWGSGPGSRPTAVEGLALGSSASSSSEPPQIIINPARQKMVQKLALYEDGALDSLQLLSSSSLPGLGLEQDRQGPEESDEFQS
Protocol: as §1

various enzymes [8] = target: various enzymes (Homo sapiens, UniProt Q6P2M8); conditions: compound 1 uM
Protocol: as §1

various enzymes [9] = target: various enzymes (Homo sapiens, UniProt P36888, D835Y)
Protocol: as §1

various enzymes [10] = target: various enzymes (Homo sapiens, UniProt P54760); conditions: compound 1 uM
Protocol: as §1

various enzymes [11] = target: various enzymes (Homo sapiens, UniProt P78362); conditions: compound 1 uM
Protocol: as §1

various enzymes [12] = target: various enzymes (Homo sapiens, UniProt P42685); conditions: compound 1 uM
Protocol: as §1

various enzymes [13] = target: various enzymes (Homo sapiens, UniProt Q13555); conditions: compound 1 uM
Protocol: as §1

various enzymes [14] = target: various enzymes (Homo sapiens, UniProt Q9UM73); conditions: compound 1 uM
Protocol: as §1

various enzymes [15] = target: T1, various enzymes (Homo sapiens, UniProt Q6PHR2); conditions: compound 1 uM
T1 sequence (Q6PHR2 1-472): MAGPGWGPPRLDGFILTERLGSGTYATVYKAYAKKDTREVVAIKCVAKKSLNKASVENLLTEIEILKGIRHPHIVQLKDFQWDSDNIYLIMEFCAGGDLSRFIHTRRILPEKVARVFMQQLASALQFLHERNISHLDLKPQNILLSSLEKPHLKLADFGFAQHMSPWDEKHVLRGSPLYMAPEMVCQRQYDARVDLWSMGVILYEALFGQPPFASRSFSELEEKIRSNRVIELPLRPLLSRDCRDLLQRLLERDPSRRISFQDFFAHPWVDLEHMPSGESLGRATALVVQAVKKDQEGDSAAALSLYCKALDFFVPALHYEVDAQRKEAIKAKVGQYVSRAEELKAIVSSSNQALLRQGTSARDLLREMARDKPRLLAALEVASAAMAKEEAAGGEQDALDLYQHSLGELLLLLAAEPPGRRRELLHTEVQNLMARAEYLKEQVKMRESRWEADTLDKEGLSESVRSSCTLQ
Protocol: as §1

various enzymes [16] = target: various enzymes (Homo sapiens, UniProt P17612); conditions: compound 1 uM
Protocol: as §1

various enzymes [17] = target: various enzymes (Homo sapiens, UniProt O14578); conditions: compound 1 uM
Protocol: as §1

various enzymes [18] = target: various enzymes (Homo sapiens, UniProt O75747); conditions: compound 1 uM
Protocol: as §1

various enzymes [19] = target: various enzymes (Homo sapiens, UniProt O75116); conditions: compound 1 uM
Protocol: as §1

various enzymes [20] = target: various enzymes (Homo sapiens, UniProt P48729); conditions: compound 1 uM
Protocol: as §1

various enzymes [21] = target: various enzymes (Homo sapiens, UniProt P36888, N841I); conditions: compound 1 uM
Protocol: as §1

various enzymes [22] = target: various enzymes (Homo sapiens, UniProt P49336); conditions: compound 1 uM
Protocol: as §1

various enzymes [23] = target: various enzymes (Homo sapiens, UniProt P29317); conditions: compound 1 uM
various enzymes (Homo sapiens, UniProt P29317), sequence (P29317 24-976): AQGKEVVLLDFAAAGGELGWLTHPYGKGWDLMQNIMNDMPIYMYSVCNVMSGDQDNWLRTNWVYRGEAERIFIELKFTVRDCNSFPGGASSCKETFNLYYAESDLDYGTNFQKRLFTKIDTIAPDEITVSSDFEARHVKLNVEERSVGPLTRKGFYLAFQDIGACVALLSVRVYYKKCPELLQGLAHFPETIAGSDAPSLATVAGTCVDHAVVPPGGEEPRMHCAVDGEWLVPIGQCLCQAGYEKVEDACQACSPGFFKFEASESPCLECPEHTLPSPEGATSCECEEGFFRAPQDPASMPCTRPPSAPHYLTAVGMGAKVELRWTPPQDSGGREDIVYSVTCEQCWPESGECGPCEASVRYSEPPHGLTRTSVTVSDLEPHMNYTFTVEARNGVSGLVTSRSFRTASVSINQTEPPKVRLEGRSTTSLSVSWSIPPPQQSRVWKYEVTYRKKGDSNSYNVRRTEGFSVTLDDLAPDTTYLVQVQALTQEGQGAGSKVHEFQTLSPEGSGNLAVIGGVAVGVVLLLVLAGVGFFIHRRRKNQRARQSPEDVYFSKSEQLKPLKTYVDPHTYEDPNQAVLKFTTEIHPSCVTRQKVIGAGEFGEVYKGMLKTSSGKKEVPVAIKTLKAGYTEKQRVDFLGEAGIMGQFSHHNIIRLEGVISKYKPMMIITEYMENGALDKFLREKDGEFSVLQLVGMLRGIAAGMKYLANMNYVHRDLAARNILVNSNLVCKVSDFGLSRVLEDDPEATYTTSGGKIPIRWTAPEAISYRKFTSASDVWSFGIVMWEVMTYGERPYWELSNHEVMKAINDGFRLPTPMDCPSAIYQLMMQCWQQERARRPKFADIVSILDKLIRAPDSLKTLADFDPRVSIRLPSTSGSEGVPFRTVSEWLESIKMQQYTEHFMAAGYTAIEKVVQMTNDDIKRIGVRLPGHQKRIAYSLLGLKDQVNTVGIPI
Protocol: as §1

various enzymes [24] = target: various enzymes (Homo sapiens, UniProt P31749); conditions: compound 1 uM
various enzymes (Homo sapiens, UniProt P31749), sequence (P31749 whole entry): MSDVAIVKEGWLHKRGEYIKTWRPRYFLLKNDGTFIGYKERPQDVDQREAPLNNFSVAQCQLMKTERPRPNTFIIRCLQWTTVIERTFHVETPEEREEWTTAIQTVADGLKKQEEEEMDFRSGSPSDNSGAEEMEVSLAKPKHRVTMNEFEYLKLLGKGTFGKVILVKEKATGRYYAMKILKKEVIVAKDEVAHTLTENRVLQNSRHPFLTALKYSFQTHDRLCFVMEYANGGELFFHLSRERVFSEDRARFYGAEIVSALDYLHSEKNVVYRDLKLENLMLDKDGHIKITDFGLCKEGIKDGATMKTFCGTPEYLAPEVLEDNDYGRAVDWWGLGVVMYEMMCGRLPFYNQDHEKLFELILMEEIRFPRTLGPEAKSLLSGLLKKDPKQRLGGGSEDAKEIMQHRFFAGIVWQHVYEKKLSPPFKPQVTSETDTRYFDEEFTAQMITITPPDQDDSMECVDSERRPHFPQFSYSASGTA
Protocol: as §1

various enzymes [25] = target: various enzymes (Homo sapiens, UniProt Q9H2X6); conditions: compound 1 uM
Protocol: as §1

various enzymes [26] = target: various enzymes (Homo sapiens, UniProt P24723); conditions: compound 1 uM
Protocol: as §1

various enzymes [27] = target: various enzymes (Homo sapiens, UniProt O15146); conditions: compound 1 uM
Protocol: as §1

various enzymes [28] = target: various enzymes (Homo sapiens, UniProt Q99755); conditions: compound 1 uM
Protocol: as §1

various enzymes [29] = target: various enzymes (Homo sapiens, UniProt Q9BZL6); conditions: compound 1 uM
Protocol: as §1

various enzymes [30] = target: various enzymes (Homo sapiens, UniProt P00533); conditions: compound 1 uM
various enzymes (Homo sapiens, UniProt P00533), sequence (P00533 25-1210): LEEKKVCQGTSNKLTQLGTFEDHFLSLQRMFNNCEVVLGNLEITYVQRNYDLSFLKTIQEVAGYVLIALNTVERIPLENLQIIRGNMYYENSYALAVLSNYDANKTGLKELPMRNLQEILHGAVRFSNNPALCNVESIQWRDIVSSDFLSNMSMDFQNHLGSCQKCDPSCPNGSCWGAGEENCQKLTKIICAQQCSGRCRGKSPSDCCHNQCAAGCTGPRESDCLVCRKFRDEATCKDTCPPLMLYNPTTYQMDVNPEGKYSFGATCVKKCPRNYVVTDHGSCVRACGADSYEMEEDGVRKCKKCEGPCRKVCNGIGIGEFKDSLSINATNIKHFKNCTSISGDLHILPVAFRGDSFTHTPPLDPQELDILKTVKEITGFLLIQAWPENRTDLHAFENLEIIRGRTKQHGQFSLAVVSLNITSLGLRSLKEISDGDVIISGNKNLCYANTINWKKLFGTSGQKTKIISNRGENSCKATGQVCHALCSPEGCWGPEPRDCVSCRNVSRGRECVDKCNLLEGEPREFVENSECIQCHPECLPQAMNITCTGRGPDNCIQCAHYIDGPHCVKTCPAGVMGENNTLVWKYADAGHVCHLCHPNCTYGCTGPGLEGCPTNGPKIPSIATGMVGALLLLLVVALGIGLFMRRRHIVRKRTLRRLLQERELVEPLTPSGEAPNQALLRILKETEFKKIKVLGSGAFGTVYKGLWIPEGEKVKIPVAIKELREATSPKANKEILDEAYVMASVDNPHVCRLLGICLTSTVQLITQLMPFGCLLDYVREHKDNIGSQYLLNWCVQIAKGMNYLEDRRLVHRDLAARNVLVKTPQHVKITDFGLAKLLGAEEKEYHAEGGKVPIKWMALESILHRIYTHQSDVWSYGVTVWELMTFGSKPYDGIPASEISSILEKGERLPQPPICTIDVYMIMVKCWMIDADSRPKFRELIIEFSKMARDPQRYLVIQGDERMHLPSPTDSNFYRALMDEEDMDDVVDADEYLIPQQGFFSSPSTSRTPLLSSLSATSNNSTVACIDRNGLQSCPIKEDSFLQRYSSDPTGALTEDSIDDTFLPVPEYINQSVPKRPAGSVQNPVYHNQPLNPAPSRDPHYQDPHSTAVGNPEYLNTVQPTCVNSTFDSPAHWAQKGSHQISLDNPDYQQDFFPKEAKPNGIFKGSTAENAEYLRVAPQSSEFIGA
Protocol: as §1

various enzymes [31] = target: various enzymes (Homo sapiens, UniProt P36894); conditions: compound 1 uM
Protocol: as §1

various enzymes [32] = target: various enzymes (Homo sapiens, UniProt Q9P286); conditions: compound 1 uM
Protocol: as §1

various enzymes [33] = target: various enzymes (Homo sapiens, UniProt O60674); conditions: compound 1 uM
Protocol: as §1

various enzymes [34] = target: various enzymes (Homo sapiens, UniProt O94804); conditions: compound 1 uM
Protocol: as §1

various enzymes [35] = target: various enzymes (Homo sapiens, UniProt P04629); conditions: compound 1 uM
Protocol: as §1

various enzymes [36] = target: various enzymes (Homo sapiens, UniProt O43683); conditions: compound 1 uM
Protocol: as §1

various enzymes [37] = target: various enzymes (Homo sapiens, UniProt Q9BYT3); conditions: compound 1 uM
Protocol: as §1

various enzymes [38] = target: various enzymes (Homo sapiens, UniProt Q96J92); conditions: compound 1 uM
Protocol: as §1

SMILES | Ambit profiling: MAP3K4 (various enzymes [1]) | Ambit profiling: DAPK3 (various enzymes [2]) | Ambit profiling: ERBB2 (various enzymes [3]) | Ambit profiling: WNK1 (various enzymes [4]) | Ambit profiling: WNK3 (various enzymes [5]) | Ambit profiling: GRK4 (various enzymes [6]) | Ambit profiling: IRAK1 (various enzymes [7]) | Ambit profiling: CAMK1B (various enzymes [8]) | Ambit profiling: EPHB4 (various enzymes [10]) | Ambit profiling: SRPK2 (various enzymes [11]) | Ambit profiling: FRK (various enzymes [12]) | Ambit profiling: CAMK2G (various enzymes [13]) | Ambit profiling: ALK (various enzymes [14]) | Ambit profiling: ULK3 (various enzymes [15]) | Ambit profiling: PKAC-alpha (various enzymes [16]) | Ambit profiling: CIT (various enzymes [17]) | Ambit profiling: PIK3C2G (various enzymes [18]) | Ambit profiling: ROCK2 (various enzymes [19]) | Ambit profiling: CSNK1A1 (various enzymes [20]) | Ambit profiling: CDK8 (various enzymes [22]) | other results
CC(C)N1Cc2nn(C)cc2-c2cnc3[nH]cc(c3c2)-c2cn(nc2C(F)(F)F)CCCC1=O [Compound 45, (Z)-5-isopropyl-31-methyl-13-(trifluoromethyl)-11H,21H,31H-5-aza-2(3,5)-pyrrolo[2,3-b]pyridina-1(4,1),3(4,3)-dipyrazolacyclononaphan-6-one] | 94 | 99 | 100 | 100 | 100 | 14 | 1.4 | 25 | 76 | 100 | 11 | 24 | 18 | 30 | 51 | 17 | 97 | 100 | 78 | 100 | Ambit profiling: FLT3(D835Y) (various enzymes [9]; compound 1 uM): 1.3; Ambit profiling: FLT3(N841I) (various enzymes [21]): 0; Ambit profiling: EPHA2 (various enzymes [23]): 48; Ambit profiling: AKT1 (various enzymes [24]): 100; Ambit profiling: HIPK2 (various enzymes [25]): 6; Ambit profiling: PRKCH (various enzymes [26]): 100; Ambit profiling: MUSK (various enzymes [27]): 89; Ambit profiling: PIP5K1A (various enzymes [28]): 27; Ambit profiling: PRKD2 (various enzymes [29]): 43; Ambit profiling: EGFR (various enzymes [30]): 29; Ambit profiling: BMPR1A (various enzymes [31]): 97; Ambit profiling: PAK7 (various enzymes [32]): 51; Ambit profiling: JAK2(JH1domain-catalytic) (various enzymes [33]): 4.9; Ambit profiling: LOK (various enzymes [34]): 4.7; Ambit profiling: TRKA (various enzymes [35]): 0; Ambit profiling: BUB1 (various enzymes [36]): 81; Ambit profiling: STK33 (various enzymes [37]): 71; Ambit profiling: WNK4 (various enzymes [38]): 97
COc1c2c(nn1C)CN(C(C)C)C(=O)CCCn1cc(c(C(F)(F)F)n1)-c1c[nH]c3ncc-2cc13 [Compound 50, (Z)-5-isopropyl-35-methoxy-31-methyl-13-(trifluoromethyl)-11H,21H,31H-5-aza-2(3,5)-pyrrolo[2,3-b]pyridina-1(4,1),3(4,3)-dipyrazolacyclononaphan-6-one] | 60 | 71 | 86 | 100 | 100 | 38 | 2.1 | 16 | 40 | 74 | 10 | 31 | 21 | 73 | 72 | 31 | 58 | 67 | 74 | 67 | Ambit profiling: FLT3(D835Y) (various enzymes [9]): 0.7; Ambit profiling: FLT3(N841) (various enzymes [21]): 0; Ambit profiling: EPHA2 (various enzymes [23]): 56; Ambit profiling: AKT1 (various enzymes [24]): 100; Ambit profiling: HIPK2 (various enzymes [25]): 13; Ambit profiling: PRKCH (various enzymes [26]): 85; Ambit profiling: MUSK (various enzymes [27]): 90; Ambit profiling: PIP5K1A (various enzymes [28]): 19; Ambit profiling: PRKD2 (various enzymes [29]): 55; Ambit profiling: EGFR (various enzymes [30]): 27; Ambit profiling: BMPR1A (various enzymes [31]): 88; Ambit profiling: PAK7 (various enzymes [32]): 100; Ambit profiling: JAK2(JH1domain-catalytic) (various enzymes [33]): 29; Ambit profiling: LOK (various enzymes [34]): 0.4; Ambit profiling: TBKA (various enzymes [35]): 0; Ambit profiling: BUB1 (various enzymes [36]): 35; Ambit profiling: STK33 (various enzymes [37]): 23; Ambit profiling: WNK4 (various enzymes [38]): 100

— patent US12157741B2, “Macrocyclic inhibitors of DYRK1A” (DANA-FARBER CANCER INSTITUTE, INC., priority 2018, dated 2024)
